Results: the supplement of paper PMC9386025

Assays:
Assay in all cases: drug sensitivity score (DSS) (DSS (dimensionless)); higher = more sensitive (stronger drug response)
FIMM-PDC1 = patient-derived ovarian cancer cells; conditions: genetic perturbation: none (patient-derived cell culture)
Method in brief: (§1)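 Cells, either patient-derived cultures or ovarian cancer cell lines given 100 ng/ml doxycycline for no less than three days to induce shRNA, went into 384-well plates at 1 000 – 1 500 per well over drugs pre-plated in five concentrations across a 10,000-fold range. The plates were held for three days at 37 °C with 5.0 % CO2. Cell viability was then taken from CellTiter-Glo luminescence on a PHERAstar FS. For each drug, a drug sensitivity score from its dose-response curve was obtained by a method described earlier.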

FIMM-PDC3 = patient-derived ovarian cancer cells; conditions: genetic perturbation: none (patient-derived cell culture)
Method in brief: as §1

FIMM-PDC4 = patient-derived ovarian cancer cells; conditions: genetic perturbation: none (patient-derived cell culture)
Method in brief: as §1

FIMM-PDC5 = patient-derived ovarian cancer cells; conditions: genetic perturbation: none (patient-derived cell culture)
Method in brief: as §1

FIMM-PDC6 = patient-derived ovarian cancer cells; conditions: genetic perturbation: none (patient-derived cell culture)
Method in brief: as §1

FIMM-PDC7 = patient-derived ovarian cancer cells; conditions: genetic perturbation: none (patient-derived cell culture)
Method in brief: as §1

JHOS2 = tested on: JHOS2
Method in brief: as §1

Kuramochi = tested on: Kuramochi
Method in brief: as §1

OVSAHO = tested on: OVSAHO
Method in brief: as §1

[1] = genetic perturbation: DOX-induced PTK7 shRNA knockdown
[2] = genetic perturbation: DOX-induced control shRNA

SMILES | drug sensitivity score (FIMM-PDC1) | drug sensitivity score (FIMM-PDC3) | drug sensitivity score (FIMM-PDC4) | drug sensitivity score (FIMM-PDC5) | drug sensitivity score (FIMM-PDC6) | drug sensitivity score (FIMM-PDC7) | drug sensitivity score (JHOS2; [1]) | drug sensitivity score (JHOS2; [2]) | drug sensitivity score (Kuramochi; [1]) | drug sensitivity score (Kuramochi; [2]) | drug sensitivity score (OVSAHO; [1]) | drug sensitivity score (OVSAHO; [2])
COC(=O)c1ccc2c(c1)NC(=O)/C2=C(\Nc1ccc(N(C)C(=O)CN2CCN(C)CC2)cc1)c1ccccc1 [Nintedanib] | 0.25 | 2.5 | 8.5 | 9.9 | 1.9 | 1.2 | 4 | 4.4 | 7.2 | 2.7 | 9.4 | 1.5
COc1ncc(-c2ccc3nccc(-c4ccnnc4)c3c2)cc1NS(=O)(=O)c1ccc(F)cc1F [Omipalisib] | 11.7 | 17.7 | 19.8 | 21.9 | 16.5 | 20 | 9.3 | 10.5 | 17.8 | 10.8 | 17.7 | 17.7
CCCCC(=O)OCC(=O)[C@]1(O)Cc2c(O)c3c(c(O)c2[C@@H](O[C@H]2C[C@H](NC(=O)C(F)(F)F)[C@H](O)[C@H](C)O2)C1)C(=O)c1c(OC)cccc1C3=O [Valrubicin] | 5.75 | 7.3 | 7.7 | 8 | 7.2 | 7 | 5.7 | 7.5 | 5.25 | 5.1 | 6.7 | 5.8
COc1cccc2c1C(=O)c1c(O)c3c(c(O)c1C2=O)C[C@@](O)(/C(CO)=N/NC(=O)CCCCCN1C(=O)C=CC1=O)C[C@@H]3O[C@H]1C[C@H](N)[C@H](O)[C@H](C)O1 [Aldoxorubicin] | 5.7 | 7.4 | 8.5 | 6.6 | 7 | 8.4 | 7.9 | 7.4 | 5.45 | 4.9 | 7.9 | 5.1
CN(C)C[C@@H]1CCn2cc(c3ccccc32)C2=C(C(=O)NC2=O)c2cn(c3ccccc23)CCO1 [Ruboxistaurin] | 6.85 | 8.5 | 7.8 | 11.1 | 6.8 | 8.1 | 6.2 | 6.5 | 7.25 | 7 | 9.8 | 6
Cn1nccc1Nc1nccc(-c2ccn([C@H](CO)c3ccc(Cl)c(F)c3)c(=O)c2)n1 [Ravoxertinib] | 1.2 | 2.2 | 7.9 | 9.2 | 6.6 | 2.6 | 1.5 | 3.6 | 3.45 | < 0 | < 0 | 2.4
Nc1ccn([C@@H]2O[C@H](CO)[C@@H](O)C2(F)F)c(=O)n1 [Gemcitabine] | 5.15 | 9.4 | 9.8 | 21.8 | 14.2 | 13.3 | 19.5 | 7.1 | < 0 | 0.8 | 6.1 | 4
Cn1ncc(Cl)c1-c1cc(C(=O)N[C@H](CN)Cc2ccc(F)c(F)c2)oc1Cl [Uprosertib] | 1.9 | < 0 | 5 | 8.9 | 6.8 | 6.5 | 0.6 | 0.2 | 1.55 | < 0 | < 0 | 2.5
CCN(CC)CCOc1ccc(C(=C(Cl)c2ccccc2)c2ccccc2)cc1 [Clomifene] | 7.05 | 5.7 | 7.5 | 8 | 5.2 | 7 | 6.9 | 4.1 | 5.45 | 2 | 5.2 | 4.2
CCN(CC)Cc1ccc2cc(COC(=O)Nc3ccc(C(=O)NO)cc3)ccc2c1 [Givinostat] | 5.5 | 6.4 | 0.9 | 7.2 | 5.8 | 2.1 | 6 | 5.7 | 8.55 | 4.8 | 7.6 | 6.9
C/C=C1\NC(=O)[C@H]2CSSCC/C=C/[C@H](CC(=O)N[C@H](C(C)C)C(=O)N2)OC(=O)[C@H](C(C)C)NC1=O [Romidepsin] | 26.2 | 29.6 | 25.6 | 26.9 | 31.1 | 27.2 | 24.3 | 24.1 | 30.7 | 21.6 | 28.1 | 25.4
Cc1[nH]nc(C(F)(F)F)c1Cc1sc2c(c1C(=O)N1C[C@](C)(O)CO1)c(=O)n(C)c(=O)n2C(C)C [AZD3965] | 2.7 | < 0 | < 0 | < 0 | < 0 | < 0 | < 0 | < 0 | 0.7 | 3.4 | 12.1 | < 0
C#Cc1cccc(Nc2ncnc3cc4c(cc23)OCCOCCOCCO4)c1 [Icotinib] | 0.8 | 8.6 | 10.5 | 12.7 | 6.1 | 5.3 | < 0 | 1 | 0.6 | 1.6 | 0.8 | 0.5
C[C@H]1O[C@@H](O[C@H]2[C@@H](O)C[C@H](O[C@H]3[C@@H](O)C[C@H](O[C@H]4CC[C@@]5(C)[C@H](CC[C@@H]6[C@@H]5C[C@@H](O)[C@]5(C)[C@@H](C7=CC(=O)OC7)CC[C@]65O)C4)O[C@@H]3C)O[C@@H]2C)C[C@H](O)[C@@H]1O [Digoxin] | 9.4 | 12 | 14.6 | 11.9 | 16.6 | 12.5 | 17.2 | 13 | 8.45 | 7.4 | 8.6 | 8
O=C(O)C1(C(=O)O)CCC1.[NH2-].[NH2-].[Pt+2] [Carboplatin] | 2.55 | 16.2 | 3.2 | 3.8 | 2.8 | 2.4 | 7.6 | 5.3 | 4.4 | 4.7 | 8.7 | 2.7
C[C@@H](Oc1cc(-n2cnc3ccc(CN4CCN(C)CC4)cc32)sc1C(N)=O)c1ccccc1C(F)(F)F | 9.8 | 12 | 12.1 | 24.1 | 1.6 | 8.5 | 25 | 7.5 | 12.6 | 6.3 | 16.7 | 8.4

SMILES | drug sensitivity score (FIMM-PDC1) | drug sensitivity score (FIMM-PDC3) | drug sensitivity score (FIMM-PDC4) | drug sensitivity score (FIMM-PDC5) | drug sensitivity score (FIMM-PDC6) | drug sensitivity score (FIMM-PDC7) | drug sensitivity score (JHOS2; [1]) | drug sensitivity score (JHOS2; [2]) | drug sensitivity score (Kuramochi; [1]) | drug sensitivity score (Kuramochi; [2]) | drug sensitivity score (OVSAHO; [1]) | drug sensitivity score (OVSAHO; [2])
O=C(Nc1c[nH]nc1-c1nc2ccc(CN3CCOCC3)cc2[nH]1)NC1CC1 [AT9283] | 2.9 | 4.4 | 8.2 | 6.1 | 3.1 | < 0 | 7.3 | 4.8 | 5.7 | 3.2 | 6.9 | 3.1
CC(C)C[C@@H](C(=O)N[C@H](C(=O)OC1CCCC1)c1ccccc1)[C@H](O)C(=O)NO [Tosedostat] | 12.6 | 14.9 | 9.5 | 12.1 | 11.1 | 6.4 | 29.8 | 14.2 | 0.75 | 0.7 | 3.1 | 6.4
N#CCNC(=O)c1ccc(-c2ccnc(Nc3ccc(N4CCOCC4)cc3)n2)cc1 [Momelotinib] | 0.1 | 1.9 | 4.1 | 7.2 | 4.2 | 8 | 8.3 | 6.8 | 0.75 | 2.1 | 3.6 | 1.7
O=C(NOCCO)c1ccc2cncn2c1Nc1ccc(I)cc1F [GDC-0623] | < 0 | 1.8 | 7.4 | 6.9 | < 0 | 9 | < 0 | 10 | 1.4 | 1.5 | 0.4 | 1.5
O=c1[nH]c(=O)n([C@H]2C[C@H](O)[C@@H](CO)O2)cc1F [Floxuridine] | 6.7 | 3.7 | 0.1 | 3.5 | 2.3 | 3.5 | < 0 | 0.6 | 8.25 | 14.1 | 4 | 6.6
CCN(CC)CCNC(=O)c1c(C)[nH]c(/C=C2\C(=O)Nc3ccc(-c4csc(-c5ccccc5)n4)cc32)c1C [Amcasertib] | < 0 | 2.6 | < 0 | 0.3 | < 0 | 5.3 | 8.4 | < 0 | 4.6 | < 0 | 1.6 | 0.8
COc1ccc(C[C@H](NC(=O)[C@H](C)NC(=O)CN2CCOCC2)C(=O)N[C@@H](Cc2ccccc2)C(=O)C2(C)CO2)cc1 (stereo in doubt) [ONX-0914] | 19.9 | 22.7 | 17.6 | 17.4 | 23.8 | 20.3 | 18.3 | 15.5 | 14.6 | 16.4 | 17.6 | 12.3
Nc1nc2cc(-c3ccc4ncc(C(=O)N5CCOCC5)n4c3)ccc2o1 [Serabelisib] | 0.6 | 0.6 | 4.1 | 5.2 | 3.1 | 9.1 | 0.9 | 0.2 | < 0 | < 0 | 0.8 | < 0
CCS(=O)(=O)c1cccc(-c2cc(C(=O)NC3CCN(C)CC3)c(C)c3[nH]c4ncc(C)cc4c23)c1 [TAK-901] | 4.85 | 4.3 | 7.9 | 6.5 | 7.3 | 3 | 3.2 | 5.3 | 7.3 | 6.4 | 8.3 | 5.7
O=C(Nc1cccc(NC(=O)c2cccc(O)c2O)c1)c1cccc(O)c1O [MST-312] | 2.9 | 9 | 6.7 | 3.7 | 3.3 | < 0 | 11.6 | 11.5 | 6.05 | 8.6 | 9.6 | 6.9
CC(C)(C)c1cnc(CSc2cnc(NC(=O)C3CCNCC3)s2)o1 [SNS-032] | 18.6 | 16.9 | 20 | 24.7 | 19.2 | 19.1 | 19.9 | 16.9 | 16.9 | 17.2 | 17.5 | 15.9
Cc1c(-c2ccc(N3CCc4cccc(C(=O)Nc5nc6ccccc6s5)c4C3)nc2C(=O)O)cnn1CC12CC3CC(CC(C3)C1)C2 | 7.4 | 9.6 | 1.2 | 13.9 | 24.8 | 7.6 | 2.4 | < 0 | 1.25 | 3.3 | 19.8 | < 0
COc1cc([C@@H]2c3cc4c(cc3[C@@H](O[C@@H]3O[C@@H]5CO[C@@H](C)O[C@H]5[C@H](O)[C@H]3O)[C@H]3COC(=O)[C@H]23)OCO4)cc(OC)c1O [Etoposide] | 2.55 | 4.8 | 1.8 | 1.9 | 2.9 | 1 | 4.7 | 2.1 | 0.5 | 2 | 2.7 | < 0
O=C1c2c(O)ccc(O)c2C(=O)c2c(NCCNCCO)ccc(NCCNCCO)c21 [Mitoxantrone] | 4.55 | 6.9 | 5.1 | 6.6 | 4.8 | 3.4 | 5.5 | 7.6 | 2.7 | 2.7 | 5.1 | 3.8
CC[C@]1(O)C[C@@H]2CN(CCc3c([nH]c4ccccc34)[C@@](C(=O)OC)(c3cc4c(cc3OC)N(C)[C@H]3[C@@](O)(C(=O)OC)[C@H](OC(C)=O)[C@]5(CC)C=CCN6CC[C@]43[C@@H]65)C2)C1 [Vinblastine] | 15.3 | 13 | 7.6 | 8.2 | 0.7 | 8.9 | 3.7 | 9.7 | 2.8 | 3.9 | 2 | 9
Cn1c(Nc2ccc(C(F)(F)F)cc2)nc2cc(Oc3ccnc(-c4ncc(C(F)(F)F)[nH]4)c3)ccc21 [NVP-RAF265] | 1.4 | 6.7 | 2.9 | 14.6 | 1.3 | 2.8 | < 0 | 3.8 | 0.1 | < 0 | 1.5 | 0.3
